Measurements as given in US8614223B2, “Pyrimidine hydroxy amide compounds as protein deacetylase inhibitors and methods of use thereof” (Acetylon Pharmaceuticals, Inc., priority 2010, dated 2013).

Columns and labels:
HDAC2 = HDAC2 (Homo sapiens (Human), UniProt Q92769); experiment: HDAC enzyme assay, HDAC2; settings: for HDAC2 fold over HDAC6 IC50 (selectivity for HDAC6): ratio HDAC2/HDAC6; for IC50: read-out: HDAC2 IC50
HDAC3 = HDAC3 (Homo sapiens (Human), UniProt O15379); experiment: HDAC enzyme assay, HDAC3; settings: for HDAC3 fold over HDAC6 IC50 (selectivity for HDAC6): ratio HDAC3/HDAC6; for IC50: read-out: HDAC3 IC50
HDAC1 = HDAC1 (Homo sapiens (Human), UniProt Q13547); experiment: HDAC enzyme assay, HDAC1; settings: for HDAC1 fold over HDAC6 IC50 (selectivity for HDAC6): ratio HDAC1/HDAC6; for IC50: read-out: HDAC1 IC50
HDAC6 = HDAC6 (Homo sapiens (Human), UniProt Q9UBN7); settings: read-out: HDAC6 IC50
HDAC6, sequence (Q9UBN7 whole entry): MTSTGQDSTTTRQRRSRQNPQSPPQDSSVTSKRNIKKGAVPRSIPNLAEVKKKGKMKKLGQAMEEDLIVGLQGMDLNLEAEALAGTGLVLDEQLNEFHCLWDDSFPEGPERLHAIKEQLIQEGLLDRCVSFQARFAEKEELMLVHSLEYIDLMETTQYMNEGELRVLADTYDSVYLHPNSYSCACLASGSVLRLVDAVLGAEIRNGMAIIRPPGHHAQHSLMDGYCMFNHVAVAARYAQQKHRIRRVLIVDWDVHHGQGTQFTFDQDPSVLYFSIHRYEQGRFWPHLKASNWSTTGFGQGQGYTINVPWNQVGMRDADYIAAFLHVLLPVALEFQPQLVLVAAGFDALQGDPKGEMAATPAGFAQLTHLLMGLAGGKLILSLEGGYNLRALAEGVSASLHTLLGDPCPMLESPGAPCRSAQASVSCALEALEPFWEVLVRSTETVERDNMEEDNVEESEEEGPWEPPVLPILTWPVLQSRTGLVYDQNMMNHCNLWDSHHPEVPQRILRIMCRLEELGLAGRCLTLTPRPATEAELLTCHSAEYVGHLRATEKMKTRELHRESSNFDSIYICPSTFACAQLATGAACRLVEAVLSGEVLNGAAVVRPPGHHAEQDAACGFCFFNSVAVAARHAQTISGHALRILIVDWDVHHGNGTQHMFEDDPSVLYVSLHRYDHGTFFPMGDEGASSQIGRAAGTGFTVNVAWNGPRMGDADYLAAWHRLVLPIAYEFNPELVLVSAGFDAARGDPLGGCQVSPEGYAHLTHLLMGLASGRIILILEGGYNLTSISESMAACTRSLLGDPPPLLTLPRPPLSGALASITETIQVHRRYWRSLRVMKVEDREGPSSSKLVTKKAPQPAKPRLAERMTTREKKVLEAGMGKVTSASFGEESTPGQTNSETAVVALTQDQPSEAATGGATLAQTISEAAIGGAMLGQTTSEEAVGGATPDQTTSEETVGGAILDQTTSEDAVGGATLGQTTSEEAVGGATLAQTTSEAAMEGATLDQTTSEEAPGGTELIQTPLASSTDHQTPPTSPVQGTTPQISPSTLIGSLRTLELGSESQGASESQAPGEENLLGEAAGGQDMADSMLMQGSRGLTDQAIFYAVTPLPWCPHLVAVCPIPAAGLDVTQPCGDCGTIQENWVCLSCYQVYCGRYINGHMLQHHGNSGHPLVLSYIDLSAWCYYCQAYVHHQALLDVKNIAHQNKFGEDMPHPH

HDAC1, sequence (Q13547 whole entry): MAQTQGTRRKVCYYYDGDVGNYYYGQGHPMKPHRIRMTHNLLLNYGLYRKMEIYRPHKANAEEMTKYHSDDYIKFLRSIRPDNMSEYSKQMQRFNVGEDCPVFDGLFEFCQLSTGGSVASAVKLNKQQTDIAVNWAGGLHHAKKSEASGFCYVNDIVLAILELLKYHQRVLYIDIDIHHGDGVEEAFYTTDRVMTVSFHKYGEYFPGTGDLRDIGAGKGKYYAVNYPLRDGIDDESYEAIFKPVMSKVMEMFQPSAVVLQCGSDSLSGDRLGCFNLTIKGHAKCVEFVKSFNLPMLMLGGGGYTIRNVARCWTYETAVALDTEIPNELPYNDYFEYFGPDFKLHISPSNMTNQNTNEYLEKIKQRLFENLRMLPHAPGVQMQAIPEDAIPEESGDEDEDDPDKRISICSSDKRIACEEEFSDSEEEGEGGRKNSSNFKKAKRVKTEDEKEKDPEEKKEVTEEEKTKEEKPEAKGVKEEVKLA
HDAC3, sequence (O15379 whole entry): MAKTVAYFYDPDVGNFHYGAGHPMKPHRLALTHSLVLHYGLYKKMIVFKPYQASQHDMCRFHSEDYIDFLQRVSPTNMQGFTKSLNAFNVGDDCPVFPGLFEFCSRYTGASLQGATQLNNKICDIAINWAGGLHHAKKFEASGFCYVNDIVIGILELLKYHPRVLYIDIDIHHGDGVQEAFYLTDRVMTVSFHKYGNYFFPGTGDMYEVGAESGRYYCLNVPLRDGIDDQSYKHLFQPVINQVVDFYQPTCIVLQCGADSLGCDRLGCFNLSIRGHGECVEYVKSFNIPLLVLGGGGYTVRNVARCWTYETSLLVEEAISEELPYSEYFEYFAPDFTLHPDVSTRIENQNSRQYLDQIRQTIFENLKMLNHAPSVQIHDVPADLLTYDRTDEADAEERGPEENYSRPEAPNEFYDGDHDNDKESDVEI
HDAC3, sequence (Q9Y618 395-489 partner): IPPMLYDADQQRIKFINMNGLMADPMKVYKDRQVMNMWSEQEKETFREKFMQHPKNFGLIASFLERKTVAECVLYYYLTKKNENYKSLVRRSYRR
HDAC2, sequence (Q92769 whole entry): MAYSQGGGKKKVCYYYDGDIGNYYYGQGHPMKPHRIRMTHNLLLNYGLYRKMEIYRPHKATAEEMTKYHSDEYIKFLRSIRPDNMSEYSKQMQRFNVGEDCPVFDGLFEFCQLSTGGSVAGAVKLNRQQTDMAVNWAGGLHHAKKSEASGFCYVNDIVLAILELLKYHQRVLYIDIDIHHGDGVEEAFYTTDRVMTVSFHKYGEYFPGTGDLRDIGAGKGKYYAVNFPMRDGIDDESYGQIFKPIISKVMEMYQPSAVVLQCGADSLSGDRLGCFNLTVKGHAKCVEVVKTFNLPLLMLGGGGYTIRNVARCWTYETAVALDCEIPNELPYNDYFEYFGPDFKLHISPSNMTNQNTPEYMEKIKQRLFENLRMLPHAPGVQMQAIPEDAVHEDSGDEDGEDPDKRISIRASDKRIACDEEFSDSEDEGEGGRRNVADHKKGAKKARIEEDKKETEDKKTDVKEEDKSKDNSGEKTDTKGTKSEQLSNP

HDAC2 fold over HDAC6 IC50 (selectivity for HDAC6) (HDAC2) | IC50 (HDAC2) [nM] | HDAC3 fold over HDAC6 IC50 (selectivity for HDAC6) (HDAC3) | IC50 (HDAC3) [nM] | HDAC1 fold over HDAC6 IC50 (selectivity for HDAC6) (HDAC1) | IC50 (HDAC1) [nM] | IC50 (HDAC6) [nM] | SMILES
(94.3x) | 385 | (206.7x) | 843 | (79.5x) | 324 | 4 | O=C(NO)c1cnc(NC2(Cc3ccccc3)CC2)nc1 [Compound 109]
(48.9x) | 159 | (160.9x) | 521 | (43.3x) | 140 | 3 | O=C(NO)c1cnc(NC2(c3ccccc3)CCC2)nc1 [Compound 130]
(3.9x) | 6 | (5.9x) | 8 | (3.6x) | 5 | 1 | O=C(NO)c1cnc(NC2(c3c(F)cccc3F)CC2)nc1 [Compound 124]
(18.1x) | 832 | (23.9x) | 1100 | (12.6x) | 578 | 46 | O=C(NO)c1cnc(NC2CCCCC2)nc1 [Compound 103]
(5.5x) | 21 | (18.5x) | 70 | (7.1x) | 27 | 4 | O=C(NO)c1cnc(NC2(c3ccc(C(F)(F)F)c(F)c3)CC2)nc1 [Compound 137]
(9x) | 19 | (27.1x) | 57 | (8.7x) | 18 | 2 | O=C(NO)c1cnc(NC2(c3cccc(OC(F)(F)F)c3)CC2)nc1 [Compound 125]
(11.3x) | 21 | (18x) | 33 | (7.4x) | 13 | 2 | O=C(NO)c1cnc(NC2(c3cc4ccccc4s3)CC2)nc1 [Compound 102]
(24.4x) | 96 | (80.8x) | 316 | (24.4x) | 95 | 4 | O=C(NO)c1cnc(NC2(c3cc(F)cc(F)c3)CC2)nc1 [Compound 132]
(4x) | 23 | (11x) | 64 | (3x) | 17 | 6 | Cc1cc(C2(Nc3ncc(C(=O)NO)cn3)CC2)ccc1F [Compound 142]

More lines, now with the values behind:

SMILES | HDAC2 fold over HDAC6 IC50 (selectivity for HDAC6) (HDAC2) | IC50 (HDAC2) [nM] | HDAC3 fold over HDAC6 IC50 (selectivity for HDAC6) (HDAC3) | IC50 (HDAC3) [nM] | HDAC1 fold over HDAC6 IC50 (selectivity for HDAC6) (HDAC1) | IC50 (HDAC1) [nM] | IC50 (HDAC6) [nM]
O=C(NO)c1cnc(NCCc2ccccc2Cl)nc1 [Compound 39] | (92.2x) | 387 | (117.9x) | 495 | (62.6x) | 263 | 4
O=C(NO)c1cnc(NCc2ccc(F)cc2C(F)(F)F)nc1 [Compound 57] | (116.6x) | 713 | (147.4x) | 901 | (86x) | 526 | 6
O=C(NO)c1cnc(Nc2c(Cl)cccc2Cl)nc1 [Compound 20] | (20.1x) | 17300 | (18.9x) | 16300 | (12.3x | 10600 | 864
Cc1ccc(C2(Nc3ncc(C(=O)NO)cn3)CC2)cc1 [Compound 93] | (34.7x) | 107 | (51x) | 157 | (25.9x) | 80 | 3
Cc1cc(F)ccc1C(C)(C)Nc1ncc(C(=O)NO)cn1 [Compound 72] | (427.2x) | 8010 | (656.2x) | 12300 | (306.9x) | 5750 | 19
CC(C)(Nc1ncc(C(=O)NO)cn1)c1ccc(F)c(F)c1 [Compound 76] | (149.7x) | 609 | (260x) | 1060 | (153.3x) | 624 | 4
CC(C)(Nc1ncc(C(=O)NO)cn1)c1ccc(Cl)c(Cl)c1 [Compound 80] | (60.2x) | 127 | (100.3x) | 212 | (40.4x) | 85 | 2
O=C(NO)c1cnc(NCc2cnccn2)nc1 [Compound 77] | (76.9x) | 340 | (98.1x) | 434 | (74x) | 328 | 4
COc1cc(Nc2ncc(C(=O)NO)cn2)cc(OC)c1 [Compound 23] | (134x) | 343 | (100.2x) | 257 | (60.4x) | 155 | 3
Cc1cc(C(C)(C)Nc2ncc(C(=O)NO)cn2)ccc1F [Compound 78] | (153.6x) | 669 | (304.6x) | 1330 | (137.3x) | 598 | 4
O=C(NO)c1cnc(NC2(c3ccccc3)CCCCC2)nc1 [Compound 84] | (403.4x) | 2970 | (613x) | 4520 | (302.2x) | 2230 | 7
O=C(NO)c1cnc(NCCc2c[nH]c3ccccc23)nc1 [Compound 43] | (30.3x) | 120 | (27.1x) | 107 | (22.8x) | 90 | 4
O=C(NO)c1cnc(Nc2ccccc2Cl)nc1 [Compound 7] | (14.9x) | 629 | (14.4x) | 606 | (9.9x) | 415 | 42
O=C(NO)c1cnc(Nc2cc(Cl)ccc2Cl)nc1 [Compound 12] | (30.2x) | 453 | (23.5x) | 352 | (14.1x) | 212 | 15
O=C(NO)c1cnc(NCCc2ccccc2-c2ccccc2)nc1 [Compound 59] | (20.5x) | 815 | (22x) | 873 | (15.3x) | 607 | 40
O=C(NO)c1cnc(NCc2ccc(C(F)(F)F)cc2)nc1 [Compound 37] | (25.4x) | 127 | (29.8x) | 149 | (17.8x) | 89 | 5
O=C(NO)c1cnc(Nc2cccc(Cl)c2)nc1 [Compound 17] | (29.6x) | 161 | (36.5x) | 198 | (33.5x) | 182 | 5
COc1ccc(Nc2ncc(C(=O)NO)cn2)cc1 [Compound 5] | (26x) | 395 | (27.8x) | 421 | (16.3x) | 247 | 15
O=C(NO)c1cnc(NCc2ccc(F)c(Cl)c2)nc1 [Compound 53] | (19.2x) | 30 | (27.2x) | 43 | (14.9x) | 24 | 2
COc1cc(Nc2ncc(C(=O)NO)cn2)cc(C(F)(F)F)c1 [Compound 21] | (100.3x) | 526 | (92.2x) | 484 | (46x) | 241 | 5
Cc1cc(Nc2ncc(C(=O)NO)cn2)ccn1 [Compound 31] | (34.7x) | 362 | (21.1x) | 221 | (19.8x) | 206 | 10
